The values that follow come from US20200277246A1, “TREATMENT METHOD, COMPOUNDS, AND METHOD OF INCREASING TRPV2 ACTIVITY” (THE FEINSTEIN INSTITUTE FOR MEDICAL RESEARCH, priority 2015, published 2020).

Structures are written as SMILES. Values joined by “and” are separate entries in the source; they are usually repeats but may differ in a detail not shown here. Equal entries are not always repeated.

In one series the test system is phosphorylated Akt. Description: FLS levels of phosphorylated Akt. It is filed as cell-based.
Another series has as its system MMP-2. The series is described as follows: IL-1β-induced MMP-2 expression (qPCR) in RA FLS. In kind it is cell-based, human. The conditions noted are these: IL-1β 10 ng/ml 48 hours, 10 μM, n=6 RA. The procedure: The qPCR conditions used have been previously described (Laragione et al., “Cia5d Regulates a New Fibroblast-Like Synoviocyte Invasion-Associated Gene Expression Signature,” Arthritis Res. Ther. 10 (4):R92 (2008), which is hereby incorporated by reference in its entirety). Briefly, total RNA (200 ng) from each sample was reverse transcribed using Superscript III (Invitrogen). MMP-2 (forward-[…] (SEQ ID NO: 1); reverse-GGTATCCATCGCCATGCT (SEQ ID NO: 2) and MMP-3 (forward-CCAGGTGTGGAGTTCCTGA (SEQ ID NO: 3); reverse-[…] (SEQ ID NO: 4)) primers were designed based on the Universal ProbeLibrary (Roche, Indianapolis, Ind.). Reactions were prepared with Absolute Blue qPCR Mix (Thermo Fisher, Waltham, Mass.), and run in duplicate on a LightCycler 480 thermocycler (Roche) using Relative Quantitative Software (Roche). Ct (threshold cycle) values were adjusted for GAPDH in each sample (ΔCt). Fold differences were calculated with the 2^−ΔΔCt method (Livak et al., “Analysis of Relative Gene Expression Data Using Real-Time Quantitative PCR and the 2(-Delta Delta C(T)) Method,” Methods 25 (4):402-408 (2001), which is hereby incorporated by reference in its entirety).
(In general: In qPCR the cycle at which signal appears reflects the starting amount.)

In the next series the test system is glioblastoma cell line. Description: Cancer cell invasion, glioblastoma. In kind it is cell-based.
The test system of series [1] is C57BL/6 mice with KRN serum transfer-induced arthritis. Description: KRN serum transfer induced arthritis (clinical scores and histology). In kind it is in vivo, mouse. The method, then: Seven to eight week-old C57BL/6 male mice (Jackson Laboratories) received 200 μl of KRN arthritogenic serum (Ji et al, “Genetic Influences on the End-Stage Effector Phase of Arthritis,” J. Exp. Med. 194 (3):321-330 (2001), which is hereby incorporated by reference in its entirety) (KBN TCR transgenic mice were a kind gift from Christophe Benoist and have been intercrossed with NOD at the Feinstein Institute to generate KRN mice and the arthritogenic serum) intraperitoneal (IP) on day zero (D0) and day 2 (D2). After the onset of clear ankle arthritis (day 3; D3), mice were started on O1821 10 mg/Kg IP BID or control vehicle (DMSO in saline solution). Arthritis severity was scored according to the system reported by Jirholt et al., “Genetic Linkage Analysis of Collagen-Induced Arthritis in the Mouse,” Eur. J. Immunol. 28 (10):3321-3328 (1998), which is hereby incorporated by reference in its entirety, which includes a number of involved joints and a degree of inflammation (swelling/redness) in a scale of 0-12 per mouse per day.
[…] Histology slides were scored without knowledge of treatment and according to a comprehensive scoring system previously reported that includes parameters for synovial hyperplasia, inflammatory cell infiltration, and bone and cartilage erosions (Brenner et al., “The Non-MHC Quantitative Trait Locus Cia10 Contains a Major Arthritis Gene and Regulates Disease Severity, Pannus Formation and Joint Damage,” Arthritis Rheum. 52 (1):322-332 (2005), which is hereby incorporated by reference in its entirety).

The next series relates to Trpv2. The conditions noted are these: cited from earlier work.
The next series relates to FLS. Description: MTT assay. It is filed as cell-based. The conditions noted are these: 24 hours, concentrations of the invasion studies. The method, then:
4×10^4 FLS per well were plated in triplicate in 96-well plates in 100 μl of complete media. Cells were allowed to adhere for 24 hours. Media was then changed and O1821, LER13, or vehicle was added at the same concentrations used for the invasion studies. After 24 hours (same duration of the invasion experiments) viable cells were determined by the colorimetric MTT kit (Millipore) according to the manufacturer's instructions.
(Formazan colour is commonly taken as a measure of viable cells.)

Series [2] deals with FLS actin cytoskeleton, lamellipodia and Trpv2 distribution. Description: Immunofluorescence and confocal microscopy of FLS. It is filed as cell-based. The procedure:
Immunofluorescence was performed as previously reported (Laragione et al., “mTOR Regulates the Invasive Properties of Synovial Fibroblasts in Rheumatoid Arthritis,” Mol. Med. 16 (9-10):352-358 (2010); Chan et al., “The GTPase Rac Regulates the Proliferation and Invasion of Fibroblast-Like Synoviocytes from Rheumatoid Arthritis Patients,” Mol. Med. 13 (5-6):297-304 (2007), which are hereby incorporated by reference in their entirety). Briefly, FLS were cultured on coverslips to 10-20% confluence, starved overnight and then pre-treated for 30 minutes, 60 minutes or 24 h with either DMSO or O1821, in the presence or absence of IL-1β 10-25 ng/ml or PDGF 50 ng/ml in complete media or in serum-free media. Cells were then fixed with 4% formaldehyde for 15 minutes at room temperature and permeabilized with PBS/Triton X-100 0.1% for 5 minutes. Non-specific binding was blocked with 5% nonfat milk. A rabbit anti-Trpv2 (Santa Cruz Biotechnology) was used as primary antibody, and a Alexa Fluor 488 (green) donkey anti-rabbit IgG (Invitrogen) used as secondary antibody. Alexa Fluor 594 (red) Phalloidin (Invitrogen) was used to stain the actin filament. The stained cells were mounted on a glass slide. A Zeiss Axiovert 200 M fluorescent microscope was used for visualization with the appropriate filters, with Zeiss Axioversion 4.7 software. Immunofluorescence microscopy was used for cell cytoskeleton scoring as previously described (Laragione et al., “CXCL10 and its Receptor CXCR3 Regulate Synovial Fibroblast Invasion in Rheumatoid Arthritis,” Arthritis Rheum. 63 (11):3274-3283 (2011), which is hereby incorporated by reference in its entirety). An Olympus FluoView 300 was used for confocal microscopy with a 600× magnification.

In another series the test system is cannabinoid receptors. The conditions noted are these: cited from earlier work.

Consider `C=C(C)[C@@H]1CCC(C)=C[C@H]1c1c(O)cc(C)cc1O` [Compound O1821], for which the “Levels of phosphorylated Akt” value in the series on phosphorylated Akt is reported as “did not affect”. Also, the “Decrease of IL-1β-induced MMP-2 expression” value in the series with MMP-2 is 45.6% and 50%. For the same compound, the Cell invasion entry in the series with glioblastoma cell line was “significantly reduce cell invasion”. The Arthritis severity scores entry in series [1] (10 mg/Kg BID IP from day 3 to day 9) was “reductions in arthritis severity scores”. Further, in series [1] (10 mg/Kg IP BID from day 3), the “Arthritis severity index (ASI), mean±S.D.” value was determined as 38.8±6.3 and the “Lower arthritis severity index (ASI) vs vehicle” value was 30%. Moreover, the “Histologic parameters (angiogenesis, inflammatory infiltration, pannus formation, loss of proteoglycan)” value in series [1] (ankles at D10, blinded scoring) was “reduced several histologic parameters”. Besides, in series [1] (histology, vs control vehicle), the Angiogenesis result is given as “marked reduction”, the Synovial pannus formation entry is given as “reduced” and the “Synovial tissue inflammatory infiltration” value is given as “reduced”. In the series on Trpv2, the “Stimulation of Trpv2” value was “stimulates”. The “Toxicity to FLS (cell mortality)” value with FLS is on record as “not toxic”. Also, the “Distribution of Trpv2 in FLS” value in series [2] (10 μM) was “did not significantly change”. For the same compound, the “Actin cytoskeleton rearrangements, lamellipodia, cell morphology” value in series [2] (10 μM, 30 minutes to 24 hours, PDGF or IL-1β) was “no significant effect”. Moreover, the “Actin cytoskeleton organization, number and distribution of lamellipodia” value in series [2] (RA FLS, 1 μM, 30 minutes) is reported as “did not affect”. For the same compound, the “Stimulation of cannabinoid receptors” value in the series with cannabinoid receptors is “does not stimulate”.
